Ten compounds from PubChem BioAssay (NCI) can be followed below.

Among the test systems are SF-268 CNS; SR leukemia; HCT-15 colon; SN12C renal; SK-MEL-5 melanoma; HCC-2998 colon; NCI-H460 lung; HOP-92 NSCLC; MALME-3M melanoma; HL-60(TB) leukemia.
Common to all, as to assay: inhibition of tumour cell growth, NCI panel, 48 h

Several values for one entry are separate records, joined by “and”; a condition that tells them apart may be missing. Equal values may be shown once.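 Results reflect a 48-hour exposure of cells in 96-well plates to compound at five concentrations. GI50: concentration for 50% inhibition of growth. TGI: concentration producing complete growth inhibition.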 A value given as a limit tells only on which side of the number the result lay.

`COC(=O)C(/C(=N\NC(N)=S)C(=O)Nc1ccccc1[N+](=O)[O-])c1cnc2ccccc2n1` (stereo not given): the TGI in the assay with SF-268 CNS, in the assay with SR leukemia, in the assay with HCT-15 colon, with SN12C renal, with SK-MEL-5 melanoma and in the assay on HCC-2998 colon was greater than 100 µM throughout. Further, the TGI in the assay on NCI-H460 lung, in the assay with HOP-92 NSCLC, with MALME-3M melanoma and with HL-60(TB) leukemia was greater than 100 µM in each case.

Take `Cc1ccc(OCC2OC(n3cnc4c(Br)nc(Br)nc43)CC2Oc2ccc(C)cc2)cc1` (stereo not given): the TGI is 25.4 µM in the assay with SF-268 CNS; 4.67 µM in the assay on SR leukemia; 3.24 µM and 4.73 µM in the assay on HCT-15 colon; 22.9 µM and 14.2 µM in the assay with SN12C renal; 23.8 µM and 23.7 µM in the assay on SK-MEL-5 melanoma; 11.8 µM and 7.24 µM with HCC-2998 colon. The TGI in the assay on NCI-H460 lung was 6.07 µM and 28 µM; with HOP-92 NSCLC, 2.55 µM and 5.36 µM; with MALME-3M melanoma, 16.3 µM and 21.6 µM; with HL-60(TB) leukemia, 21.8 µM. In addition, the GI50 with HCT-15 colon is 1.45 µM; with SN12C renal, 9.93 µM; in the assay on SK-MEL-5 melanoma it was 13.4 µM; in the assay on HCC-2998 colon it was 3.07 µM; in the assay with NCI-H460 lung, 1.86 µM and 10.7 µM; with HOP-92 NSCLC it was 1.16 µM. Also, the GI50 with MALME-3M melanoma is 6.5 µM.

Take `CCOCc1cc(=O)c2c(OC)cc3c(c2o1)CCC(C)(C)O3`: the TGI with SR leukemia, in the assay with HCT-15 colon, in the assay with SN12C renal, in the assay on SK-MEL-5 melanoma, in the assay on HCC-2998 colon and in the assay on NCI-H460 lung was greater than 100 µM each time. The TGI with HOP-92 NSCLC, in the assay with MALME-3M melanoma and in the assay on HL-60(TB) leukemia was greater than 100 µM in each case.

As to `O=C1C2C3C=CC(C2C(=O)N1CN1CCSCC1)C1C2C(=O)N(CN4CCSCC4)C(=O)C2C31` (stereo not given), the TGI with SF-268 CNS was greater than 91.6 µM; in the assay with SR leukemia, greater than 100 µM; in the assay on HCT-15 colon, greater than 59.7 µM; in the assay on SN12C renal it was greater than 100 µM; in the assay on SK-MEL-5 melanoma it was greater than 100 µM; with HCC-2998 colon, greater than 100 µM. In addition, the TGI was greater than 57.3 µM with NCI-H460 lung, greater than 100 µM in the assay on HOP-92 NSCLC, greater than 100 µM with MALME-3M melanoma and 73 µM with HL-60(TB) leukemia. The GI50 in the assay with NCI-H460 lung was 40 µM.

For the compound `Cc1ccc2nc(NC(=O)/C(=N\NC(=S)NN)C3C(=O)NC(=S)NC3=O)sc2c1`, the TGI with SF-268 CNS, in the assay on SR leukemia, in the assay on HCT-15 colon, in the assay with SN12C renal, in the assay with SK-MEL-5 melanoma and with HCC-2998 colon was greater than 100 µM throughout. In addition, the TGI in the assay with NCI-H460 lung, in the assay on HOP-92 NSCLC, in the assay on MALME-3M melanoma and in the assay with HL-60(TB) leukemia was greater than 100 µM each time.

In the case of `CN(C)c1ccc(N=C2C=CC(=O)c3ccccc32)cc1`, the GI50 with SF-268 CNS was 2.92 µM; in the assay with SR leukemia it was 2.86 µM; in the assay on HCT-15 colon, 2.36 µM; in the assay with SN12C renal it was 2.54 µM; in the assay with SK-MEL-5 melanoma it was 1.34 µM; with HCC-2998 colon, 5.05 µM. For the same compound, the GI50 in the assay with NCI-H460 lung was 1.98 µM; in the assay with HOP-92 NSCLC, 5.06 µM; with MALME-3M melanoma it was 1.6 µM; in the assay on HL-60(TB) leukemia, 2.15 µM. In addition, the TGI with SF-268 CNS came to 13.1 µM; in the assay with SR leukemia it was 14.1 µM; in the assay with HCT-15 colon it was 17.7 µM; in the assay with SN12C renal, 9.28 µM; with SK-MEL-5 melanoma it was 2.72 µM; in the assay with HCC-2998 colon, 16.7 µM. The TGI in the assay with NCI-H460 lung worked out at 4.86 µM; in the assay with HOP-92 NSCLC, 18.7 µM; with MALME-3M melanoma, 3.75 µM; with HL-60(TB) leukemia it was 4.52 µM.

Take `COc1ccc(OC)c(/C=C/c2nc(SCc3ccccc3)n(-c3ccc(Cl)cc3)n2)c1`: the GI50 was 8.39 µM in the assay on SF-268 CNS; 3.53 µM in the assay with SR leukemia; 5.01 µM in the assay with HCT-15 colon; 8.1 µM in the assay on SN12C renal; 4.75 µM in the assay with SK-MEL-5 melanoma; 8.24 µM with HCC-2998 colon. For the same compound, the GI50 is 4.17 µM in the assay on NCI-H460 lung, greater than 100 µM in the assay on HOP-92 NSCLC and 3.14 µM in the assay with HL-60(TB) leukemia. Besides, the TGI in the assay with SF-268 CNS is greater than 100 µM; in the assay on SR leukemia it was greater than 100 µM; with HCT-15 colon it was greater than 100 µM; in the assay with SN12C renal, greater than 100 µM; with SK-MEL-5 melanoma it was 21.9 µM; with HCC-2998 colon it was greater than 100 µM. Besides, the TGI in the assay on NCI-H460 lung is greater than 100 µM; in the assay with HOP-92 NSCLC it was greater than 100 µM; with HL-60(TB) leukemia, 9.86 µM.

As for `C/C(=N/N=C(N)N)c1ccc(NC(=O)Nc2ccc(/C(C)=N/N=C(N)N)cc2)cc1`, the GI50 with SF-268 CNS is 17.2 µM; in the assay with SR leukemia it was 15.2 µM; in the assay on HCT-15 colon, 25.5 µM; with SN12C renal, 14.2 µM; with SK-MEL-5 melanoma, 10.6 µM; with HCC-2998 colon, 23.4 µM. Moreover, the GI50 in the assay on NCI-H460 lung is 13.5 µM; with HOP-92 NSCLC, 14.2 µM; with MALME-3M melanoma, 16.5 µM; with HL-60(TB) leukemia, 7.89 µM. The TGI is greater than 71.2 µM in the assay with SF-268 CNS; 30.1 µM in the assay on SR leukemia; greater than 77.6 µM with HCT-15 colon; 45.7 µM with SN12C renal; 37.9 µM in the assay on SK-MEL-5 melanoma; 81.5 µM in the assay on HCC-2998 colon. Moreover, the TGI is 48.8 µM with NCI-H460 lung, 33.8 µM with HOP-92 NSCLC, 46.9 µM with MALME-3M melanoma and greater than 28.4 µM in the assay with HL-60(TB) leukemia.

Consider `CC1=C([Se]CC(OC(=O)[C@@H](CO)NC(=O)OC(C)(C)C)C(=O)NCCCCCC(=O)OCc2ccccc2)C(=O)c2ccccc2C1=O` (stereo not given in full), for which the GI50 is 1.85 µM in the assay on SF-268 CNS; 1.6 µM with SR leukemia; 1.93 µM with HCT-15 colon; 1.95 µM in the assay with SN12C renal; 1.59 µM in the assay with SK-MEL-5 melanoma; 1.98 µM in the assay on HCC-2998 colon. Besides, the GI50 with NCI-H460 lung is 0.462 µM; with HOP-92 NSCLC, 1.87 µM; in the assay with MALME-3M melanoma it was 2.07 µM; with HL-60(TB) leukemia it was 2.03 µM. Further, the TGI in the assay with SF-268 CNS was determined as 3.27 µM; with SR leukemia, 6.55 µM; with HCT-15 colon it was 3.77 µM; in the assay on SN12C renal, 3.59 µM; in the assay on SK-MEL-5 melanoma, 2.96 µM; in the assay with HCC-2998 colon it was 3.48 µM. Moreover, the TGI with NCI-H460 lung was found to be 1.61 µM; in the assay with HOP-92 NSCLC it was 3.32 µM; with MALME-3M melanoma, 3.82 µM; in the assay with HL-60(TB) leukemia it was 4.82 µM.

`CCOC(=O)C1(Br)S(=O)(=O)OCCOS1(=O)=O`: the TGI in the assay on SF-268 CNS, in the assay on SR leukemia, with HCT-15 colon, with SN12C renal, in the assay with SK-MEL-5 melanoma and with HCC-2998 colon was greater than 100 µM in each case. Besides, the TGI in the assay with NCI-H460 lung, in the assay on HOP-92 NSCLC, in the assay on MALME-3M melanoma and in the assay with HL-60(TB) leukemia was greater than 100 µM each time.
